Measurements: the OPERA property sets (Mansouri et al. 2018)

details: not given

| Structure (SMILES) | log10 Koc (L/kg) | log10 vapour pressure (mmHg) | melting point | boiling point | ready biodegradability | log10 Henry constant (atm·m³/mol) | log10 Koa |
| --- | --- | --- | --- | --- | --- | --- | --- |
| COc1nn(CSP(=S)(OC)OC)c(=O)s1 | 1.53 | -5.47 | 39 °C |  |  |  |  |
| C[Si]1(C)O[Si](C)(C)O[Si](C)(C)O[Si](C)(C)O[Si](C)(C)O[Si](C)(C)O1 |  | -1.65 | -3 °C | 245 °C |  |  |  |
| C=CCNCC=C |  | 1.31 | -88.4 °C | 111 °C |  |  |  |
| CCOC(=O)c1ccccc1Cl |  |  |  | 243 °C |  |  |  |
| O=C[O-].[K+] |  |  | 167 °C |  |  |  |  |
| NC(=O)c1ccc(C(F)(F)F)cc1 |  |  | 185 °C |  |  |  |  |
| FCCCCCCCl |  |  |  | 168 °C |  |  |  |
| Nc1ccccc1N |  | -2.69 | 102 °C | 257 °C | not readily biodegradable |  |  |
| CCCCCC(=O)Cl |  |  | -87 °C | 153 °C |  |  |  |
| CCCCCCCCOC(=O)c1ccccc1C(=O)OCCCCCCCC | 4.38 | -7 |  |  | readily biodegradable |  |  |
| C/C=C/CO |  |  |  | 121 °C |  |  |  |
| COC(=O)Nc1cccc(Cl)c1 | 2.15 |  |  |  |  |  |  |
| Clc1ccc(Cl)c(Br)c1 |  |  | 35 °C | 226 °C |  |  |  |
| Clc1cccc(-c2ccccc2Cl)c1 |  |  |  |  |  | -3.6 |  |
| CCCC(Cl)CC (configuration not stated) |  |  |  | 123 °C |  |  |  |
| CCOC |  | 3.17 | -113 °C | 7.4 °C |  |  |  |
| CCOC(=O)n1ccn(C)c1=S |  |  | 124 °C |  |  |  |  |
| Clc1ccc(Cl)c(-c2cc(Cl)c(Cl)cc2Cl)c1 | 5.22 | -4.6 |  |  |  | -4.05 | 9.06 |
| CC[Si](CC)(CC)CC |  | 0.699 |  | 155 °C |  |  |  |
| CB(C)Cl |  |  |  | 4.9 °C |  |  |  |
| CCCCCCCCCCCCCCCCCCCCCCCCCCCCCCCCCCCCCCCC |  |  | 82 °C |  | readily biodegradable |  |  |
| CCCCF |  | 2.76 | -134 °C | 32.5 °C |  |  |  |
| OC1CCCCCC1 |  |  | 2 °C | 185 °C |  |  |  |

| Structure (SMILES) | log10 Koc (L/kg) | log10 vapour pressure (mmHg) | melting point | boiling point | ready biodegradability | log10 Henry constant (atm·m³/mol) | log10 Koa |
| --- | --- | --- | --- | --- | --- | --- | --- |
| Cc1c(C)c(C)c(N)c(C)c1C |  |  | 152 °C | 278 °C |  |  |  |
| FC1(F)C(F)(F)C(F)(Cl)C1(F)Cl (configuration not stated) |  | 2.36 | -24.2 °C | 59.5 °C |  |  |  |
| COC1=C[C@@H](C)[C@@H]2C[C@H]3OC(=O)C[C@H]4C(C)=C(OC)C(=O)[C@H]([C@@]2(C)C1=O)[C@@]34C |  |  | 222 °C |  |  |  |  |
| CCn1ccc(NS(=O)(=O)c2ccc(N)cc2)nc1=O |  |  | 166 °C |  |  |  |  |
| N#CCc1ccccc1Cl |  |  | 24 °C | 251 °C |  |  |  |
| CCCCCCCCCCCCCCCCCCOC(=O)CCSCCC(=O)OCCCCCCCCCCCCCCCCCC |  |  | 66 °C |  | readily biodegradable |  |  |
| COc1ccc(N(CCCC(=O)O)C(=O)c2ccc(Cl)cc2)cc1 |  |  | 116 °C |  |  |  |  |
| CC=CC(C)(C)O |  |  |  | 112 °C |  |  |  |
| CSCC(C)C |  |  |  | 112 °C |  |  |  |
| COC(=O)C1CCCCC1 |  |  |  | 183 °C |  |  |  |
| Oc1ccccc1C(F)(F)F |  |  | 45.5 °C | 148 °C |  |  |  |
| CC(=O)[C@H]1CC[C@H]2[C@@H]3C=CC4=CC(=O)CC[C@@]4(C)[C@@H]3CC[C@]12C |  |  | 170 °C |  |  |  |  |
| CC(C(=O)O)c1ccc(C(=O)c2ccccc2)s1 (configuration not stated) |  |  | 96 °C |  |  |  |  |
| CCCCCCCCOC(C)=O |  |  | -38.5 °C | 210 °C |  |  |  |
| Cn1c(=O)cc(O)c2ccccc21 |  |  | 270 °C |  |  |  |  |
| Oc1ccccc1C=Nc1ccccc1 |  |  | 49.5 °C |  |  |  |  |
| Nc1ccc(N)c2c1C(=O)c1c(N)ccc(N)c1C2=O |  |  | 285 °C |  |  |  |  |
| c1ccc(Nc2ccccc2)cc1 | 2.78 | -3.17 | 52.9 °C | 302 °C | not readily biodegradable |  | 7.64 |
| Cl.N=C(N)SCc1ccccc1 |  |  | 173 °C |  |  |  |  |
| CCCCCC(C)OC(=O)COc1ccc(Cl)c2cccnc12 (configuration not stated) |  | -7.4 | 69.4 °C |  |  |  |  |
| SC1CCCCC1 |  | 0.598 |  | 159 °C |  |  |  |
| O=C1OC(C(O)CO)C(O)=C1O (configuration not stated) |  |  | 168 °C |  |  |  |  |
| Nc1cc(Cl)c(O)c(Cl)c1 |  |  | 168 °C |  |  |  |  |

same assay, conditions: fish

| Structure (SMILES) | log10 BCF | log10 biotransformation half-life (days) |
| --- | --- | --- |
| COc1nn(CSP(=S)(OC)OC)c(=O)s1 | 0.74 | -1.15 |
| ClC1=C(Cl)C2(Cl)C=CC1(Cl)C2(Cl)Cl | 3.81 |  |
| C[Si]1(C)O[Si](C)(C)O[Si](C)(C)O[Si](C)(C)O[Si](C)(C)O[Si](C)(C)O1 |  | 2.34 |
| Clc1ccc(Cl)c(-c2cc(Cl)c(Cl)cc2Cl)c1 | 5.47 | 2.46 |
| Clc1ccccc1-c1c(Cl)ccc(Cl)c1Cl |  | 2.38 |
| c1ccc(Nc2ccccc2)cc1 | 2.18 | 0.35 |
